# Measurements reported in PubChem BioAssay (NCI).
#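 Tested at 5 concentrations; 48 h exposure; 96-well plates; endpoints linearly interpolated, else capped at highest concentration. GI50: concentration for 50% inhibition of growth. TGI marks complete inhibition of growth.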
# System: NCI-H226 lung
# Test: NCI anticancer screen, dose series, 48 h
SMILES,GI50 [µM],TGI [µM]
CC(C)c1ccc(C(=O)Nc2sc3c(c2C(N)=O)CCC(=O)C3)cc1,2.42,7.23

# System: NCI-H23 lung
# Test: NCI anticancer screen, dose series, 48 h
SMILES,TGI [µM],GI50 [µM]
c1ccc(C2=NNC3c4ccccc4-c4ccccc4N3C2)cc1 (stereo not given),67.8,
CN/N=C(/CCN1CCCC1)CC(c1ccccc1)c1c(O)c2ccccc2oc1=O (stereo not given),> 100,
COc1ccc(OC)c(/C=C/C(=O)N/N=C/c2ccc(Cl)cc2)c1,,0.105
COc1ccc(C(=O)c2cc(C)c(OC)c(C)c2)c(OC)c1N(C(=O)C(Cl)Cl)C(=O)C(Cl)Cl,> 100,0.0909
CCN(CC)c1sc(N(CC)CC)c2c1SSSSS2,0.674,0.255
O=C(c1cccc(O)c1O)c1cn(Cc2ccc(F)cc2)c2cccc(O)c12,19.8,4.12
COC(=O)Nc1nc2ccc(Oc3ccc(NC(=O)Nc4ccccc4)cc3)cc2[nH]1,> 12.3,0.545
O=C1c2c(Br)sc(Br)c2C(NC(=O)C(F)(F)F)C1O (stereo not given),46.3,
CCN(CC)CCCC(C)Nc1c(C)cnc2cc(Cl)c(C)cc12 (stereo not given),23.9,11.5
CCCCCCCC(CC(=O)NC(CO)C(=O)NC(CO)CC(C)C)OC(=O)CC(CCCCCCC)OC(=O)CC(CCCCCCC)OC1OC(C)C(O)C(OC2OC(C)C(O)C(OC(C)=O)C2O)C1O (stereo not given),27.9,
CCc1[nH]c(=O)nc(N)c1-c1ccc(N2CCCCC2)c([N+](=O)[O-])c1,> 100,
CCC#CC[C@H]1C/C=C2/C(=O)C=C[C@@H]2C/C=C\CCCC(=O)O1,2.03,0.873
CCN(CC)CCN1CC(O)=C(c2nc(-c3ccc(Cl)cc3)cs2)C1=N,49.9,7.39
COc1cc(OC)c(/C=C/C(=O)c2c(OC)cccc2OC)c(OC)c1,> 27.6,1.46
O=C(Nc1ccc(Cl)cc1)c1cc(-c2ccc(F)cc2)c2sc(=O)[nH]c2n1,5.79,1.19
COc1cc(NC(=O)c2cc(O)c(CC=C(C)C)c(O)c2)cc2c1O[C@]1(C)CC[C@@H](O)C(C)(C)[C@H]1C2,25.7,3.99
Cc1cc(S(=O)(=O)Nc2nc(N)nc(N3N=CCC3C)n2)c(SCC(=O)O)cc1Cl (stereo not given),> 10,
Cc1ccc(C(=NN=C(N)N)c2ccc(C)cc2)cc1,8.66,0.98
Clc1nc(Cl)c2ncn(Cc3cccc(COc4cccc(OCc5cccc(Cn6cnc7c(Cl)nc(Cl)nc76)c5)c4)c3)c2n1,> 100,54.5
CCS(=O)(=O)c1ccc(OC)c(Nc2ncc(-c3cccc(OC)c3)o2)c1,> 25,8.3
CCCCN=C(N)c1ccc(OCCSCCOc2ccc(C(N)=NCCCC)cc2)cc1,> 100,2.87
CC(C)c1ccc(C(=O)Nc2sc3c(c2C(N)=O)CCC(=O)C3)cc1,2.45,0.381

# System: NCI-H460 lung
# Test: NCI anticancer screen, dose series, 48 h
SMILES,TGI [µM],GI50 [µM]
c1ccc(C2=NNC3c4ccccc4-c4ccccc4N3C2)cc1 (stereo not given),53.3,
CN/N=C(/CCN1CCCC1)CC(c1ccccc1)c1c(O)c2ccccc2oc1=O (stereo not given),> 100,
COc1ccc(OC)c(/C=C/C(=O)N/N=C/c2ccc(Cl)cc2)c1,> 37.1,0.0704
COc1ccc(C(=O)c2cc(C)c(OC)c(C)c2)c(OC)c1N(C(=O)C(Cl)Cl)C(=O)C(Cl)Cl,15.7,0.0381
CCN(CC)c1sc(N(CC)CC)c2c1SSSSS2,6.02,2.48
O=C(c1cccc(O)c1O)c1cn(Cc2ccc(F)cc2)c2cccc(O)c12,11,2.01
COC(=O)Nc1nc2ccc(Oc3ccc(NC(=O)Nc4ccccc4)cc3)cc2[nH]1,2.71,0.129
O=C1c2c(Br)sc(Br)c2C(NC(=O)C(F)(F)F)C1O (stereo not given),36,
CCN(CC)CCCC(C)Nc1c(C)cnc2cc(Cl)c(C)cc12 (stereo not given),32.3,14.1
CCCCCCCC(CC(=O)NC(CO)C(=O)NC(CO)CC(C)C)OC(=O)CC(CCCCCCC)OC(=O)CC(CCCCCCC)OC1OC(C)C(O)C(OC2OC(C)C(O)C(OC(C)=O)C2O)C1O (stereo not given),26.1,
CCc1[nH]c(=O)nc(N)c1-c1ccc(N2CCCCC2)c([N+](=O)[O-])c1,> 100,
CCC#CC[C@H]1C/C=C2/C(=O)C=C[C@@H]2C/C=C\CCCC(=O)O1,3.65,1.14
CCN(CC)CCN1CC(O)=C(c2nc(-c3ccc(Cl)cc3)cs2)C1=N,4.29,2.04
COc1cc(OC)c(/C=C/C(=O)c2c(OC)cccc2OC)c(OC)c1,> 20.3,0.393
O=C(Nc1ccc(Cl)cc1)c1cc(-c2ccc(F)cc2)c2sc(=O)[nH]c2n1,4.29,1.73
COc1cc(NC(=O)c2cc(O)c(CC=C(C)C)c(O)c2)cc2c1O[C@]1(C)CC[C@@H](O)C(C)(C)[C@H]1C2,19.2,3.65
Cc1cc(S(=O)(=O)Nc2nc(N)nc(N3N=CCC3C)n2)c(SCC(=O)O)cc1Cl (stereo not given),> 10,
Cc1ccc(C(=NN=C(N)N)c2ccc(C)cc2)cc1,1.33,0.359
Clc1nc(Cl)c2ncn(Cc3cccc(COc4cccc(OCc5cccc(Cn6cnc7c(Cl)nc(Cl)nc76)c5)c4)c3)c2n1,> 100,> 100
CCS(=O)(=O)c1ccc(OC)c(Nc2ncc(-c3cccc(OC)c3)o2)c1,> 25,11.9
CCCCN=C(N)c1ccc(OCCSCCOc2ccc(C(N)=NCCCC)cc2)cc1,> 100,3.17
CC(C)c1ccc(C(=O)Nc2sc3c(c2C(N)=O)CCC(=O)C3)cc1,3.73,0.849

# System: PC-3 prostate
# Test: NCI anticancer screen, dose series, 48 h
SMILES,TGI [µM],GI50 [µM]
c1ccc(C2=NNC3c4ccccc4-c4ccccc4N3C2)cc1 (stereo not given),65.5,
CN/N=C(/CCN1CCCC1)CC(c1ccccc1)c1c(O)c2ccccc2oc1=O (stereo not given),> 100,
COc1ccc(OC)c(/C=C/C(=O)N/N=C/c2ccc(Cl)cc2)c1,> 100,0.105
COc1ccc(C(=O)c2cc(C)c(OC)c(C)c2)c(OC)c1N(C(=O)C(Cl)Cl)C(=O)C(Cl)Cl,> 100,0.0436
CCN(CC)c1sc(N(CC)CC)c2c1SSSSS2,4.26,2.05
O=C(c1cccc(O)c1O)c1cn(Cc2ccc(F)cc2)c2cccc(O)c12,26.7,6.92
COC(=O)Nc1nc2ccc(Oc3ccc(NC(=O)Nc4ccccc4)cc3)cc2[nH]1,> 9.6,0.15
O=C1c2c(Br)sc(Br)c2C(NC(=O)C(F)(F)F)C1O (stereo not given),74.9,
CCN(CC)CCCC(C)Nc1c(C)cnc2cc(Cl)c(C)cc12 (stereo not given),26.4,9.69
CCCCCCCC(CC(=O)NC(CO)C(=O)NC(CO)CC(C)C)OC(=O)CC(CCCCCCC)OC(=O)CC(CCCCCCC)OC1OC(C)C(O)C(OC2OC(C)C(O)C(OC(C)=O)C2O)C1O (stereo not given),20.6,
CCc1[nH]c(=O)nc(N)c1-c1ccc(N2CCCCC2)c([N+](=O)[O-])c1,> 100,
CCC#CC[C@H]1C/C=C2/C(=O)C=C[C@@H]2C/C=C\CCCC(=O)O1,6.05,1.35
CCN(CC)CCN1CC(O)=C(c2nc(-c3ccc(Cl)cc3)cs2)C1=N,> 100,6.8
COc1cc(OC)c(/C=C/C(=O)c2c(OC)cccc2OC)c(OC)c1,> 100,1.17
O=C(Nc1ccc(Cl)cc1)c1cc(-c2ccc(F)cc2)c2sc(=O)[nH]c2n1,13.3,0.65
COc1cc(NC(=O)c2cc(O)c(CC=C(C)C)c(O)c2)cc2c1O[C@]1(C)CC[C@@H](O)C(C)(C)[C@H]1C2,35.1,3.03
Cc1cc(S(=O)(=O)Nc2nc(N)nc(N3N=CCC3C)n2)c(SCC(=O)O)cc1Cl (stereo not given),> 10,
Cc1ccc(C(=NN=C(N)N)c2ccc(C)cc2)cc1,10.5,0.457
Clc1nc(Cl)c2ncn(Cc3cccc(COc4cccc(OCc5cccc(Cn6cnc7c(Cl)nc(Cl)nc76)c5)c4)c3)c2n1,47,14.6
CCS(=O)(=O)c1ccc(OC)c(Nc2ncc(-c3cccc(OC)c3)o2)c1,> 25,8.61
CCCCN=C(N)c1ccc(OCCSCCOc2ccc(C(N)=NCCCC)cc2)cc1,98.6,4.4
CC(C)c1ccc(C(=O)Nc2sc3c(c2C(N)=O)CCC(=O)C3)cc1,1.31,0.242

# System: SF-295 CNS
# Test: NCI anticancer screen, dose series, 48 h
SMILES,TGI [µM],GI50 [µM]
c1ccc(C2=NNC3c4ccccc4-c4ccccc4N3C2)cc1 (stereo not given),> 100,
CN/N=C(/CCN1CCCC1)CC(c1ccccc1)c1c(O)c2ccccc2oc1=O (stereo not given),> 100,
COc1ccc(OC)c(/C=C/C(=O)N/N=C/c2ccc(Cl)cc2)c1,> 25.4,0.0701
COc1ccc(C(=O)c2cc(C)c(OC)c(C)c2)c(OC)c1N(C(=O)C(Cl)Cl)C(=O)C(Cl)Cl,> 100,0.0323
CCN(CC)c1sc(N(CC)CC)c2c1SSSSS2,4.04,2.09
O=C(c1cccc(O)c1O)c1cn(Cc2ccc(F)cc2)c2cccc(O)c12,> 46.5,5.65
COC(=O)Nc1nc2ccc(Oc3ccc(NC(=O)Nc4ccccc4)cc3)cc2[nH]1,2.23,0.121
O=C1c2c(Br)sc(Br)c2C(NC(=O)C(F)(F)F)C1O (stereo not given),35.7,
CCN(CC)CCCC(C)Nc1c(C)cnc2cc(Cl)c(C)cc12 (stereo not given),28.1,11.3
CCCCCCCC(CC(=O)NC(CO)C(=O)NC(CO)CC(C)C)OC(=O)CC(CCCCCCC)OC(=O)CC(CCCCCCC)OC1OC(C)C(O)C(OC2OC(C)C(O)C(OC(C)=O)C2O)C1O (stereo not given),30.2,
CCc1[nH]c(=O)nc(N)c1-c1ccc(N2CCCCC2)c([N+](=O)[O-])c1,> 100,
CCC#CC[C@H]1C/C=C2/C(=O)C=C[C@@H]2C/C=C\CCCC(=O)O1,4.36,1.43
CCN(CC)CCN1CC(O)=C(c2nc(-c3ccc(Cl)cc3)cs2)C1=N,3.49,1.8
COc1cc(OC)c(/C=C/C(=O)c2c(OC)cccc2OC)c(OC)c1,,0.395
O=C(Nc1ccc(Cl)cc1)c1cc(-c2ccc(F)cc2)c2sc(=O)[nH]c2n1,3.8,1.1
COc1cc(NC(=O)c2cc(O)c(CC=C(C)C)c(O)c2)cc2c1O[C@]1(C)CC[C@@H](O)C(C)(C)[C@H]1C2,3.85,1.25
Cc1cc(S(=O)(=O)Nc2nc(N)nc(N3N=CCC3C)n2)c(SCC(=O)O)cc1Cl (stereo not given),> 10,
Cc1ccc(C(=NN=C(N)N)c2ccc(C)cc2)cc1,0.945,0.284
Clc1nc(Cl)c2ncn(Cc3cccc(COc4cccc(OCc5cccc(Cn6cnc7c(Cl)nc(Cl)nc76)c5)c4)c3)c2n1,> 100,> 100
CCS(=O)(=O)c1ccc(OC)c(Nc2ncc(-c3cccc(OC)c3)o2)c1,> 25,9.72
CCCCN=C(N)c1ccc(OCCSCCOc2ccc(C(N)=NCCCC)cc2)cc1,53.8,2.73
CC(C)c1ccc(C(=O)Nc2sc3c(c2C(N)=O)CCC(=O)C3)cc1,3.61,1.42

# System: SK-MEL-5 melanoma
# Test: NCI anticancer screen, dose series, 48 h
SMILES,TGI [µM],GI50 [µM]
c1ccc(C2=NNC3c4ccccc4-c4ccccc4N3C2)cc1 (stereo not given),29.4,
CN/N=C(/CCN1CCCC1)CC(c1ccccc1)c1c(O)c2ccccc2oc1=O (stereo not given),> 100,
COc1ccc(OC)c(/C=C/C(=O)N/N=C/c2ccc(Cl)cc2)c1,12.6,0.0363
COc1ccc(C(=O)c2cc(C)c(OC)c(C)c2)c(OC)c1N(C(=O)C(Cl)Cl)C(=O)C(Cl)Cl,2.14,0.0509
CCN(CC)c1sc(N(CC)CC)c2c1SSSSS2,1.95,0.851
O=C(c1cccc(O)c1O)c1cn(Cc2ccc(F)cc2)c2cccc(O)c12,4.97,1.73
COC(=O)Nc1nc2ccc(Oc3ccc(NC(=O)Nc4ccccc4)cc3)cc2[nH]1,1.18,0.0702
O=C1c2c(Br)sc(Br)c2C(NC(=O)C(F)(F)F)C1O (stereo not given),36,
CCN(CC)CCCC(C)Nc1c(C)cnc2cc(Cl)c(C)cc12 (stereo not given),13.3,3.92
CCCCCCCC(CC(=O)NC(CO)C(=O)NC(CO)CC(C)C)OC(=O)CC(CCCCCCC)OC(=O)CC(CCCCCCC)OC1OC(C)C(O)C(OC2OC(C)C(O)C(OC(C)=O)C2O)C1O (stereo not given),25.1,
CCc1[nH]c(=O)nc(N)c1-c1ccc(N2CCCCC2)c([N+](=O)[O-])c1,> 100,
CCC#CC[C@H]1C/C=C2/C(=O)C=C[C@@H]2C/C=C\CCCC(=O)O1,1.71,0.854
CCN(CC)CCN1CC(O)=C(c2nc(-c3ccc(Cl)cc3)cs2)C1=N,3.02,1.63
COc1cc(OC)c(/C=C/C(=O)c2c(OC)cccc2OC)c(OC)c1,2.49,0.348
O=C(Nc1ccc(Cl)cc1)c1cc(-c2ccc(F)cc2)c2sc(=O)[nH]c2n1,2.13,0.493
COc1cc(NC(=O)c2cc(O)c(CC=C(C)C)c(O)c2)cc2c1O[C@]1(C)CC[C@@H](O)C(C)(C)[C@H]1C2,3.61,1.51
Cc1cc(S(=O)(=O)Nc2nc(N)nc(N3N=CCC3C)n2)c(SCC(=O)O)cc1Cl (stereo not given),> 10,
Cc1ccc(C(=NN=C(N)N)c2ccc(C)cc2)cc1,1.5,0.427
Clc1nc(Cl)c2ncn(Cc3cccc(COc4cccc(OCc5cccc(Cn6cnc7c(Cl)nc(Cl)nc76)c5)c4)c3)c2n1,46.1,9.76
CCS(=O)(=O)c1ccc(OC)c(Nc2ncc(-c3cccc(OC)c3)o2)c1,> 25,10
CCCCN=C(N)c1ccc(OCCSCCOc2ccc(C(N)=NCCCC)cc2)cc1,14.4,1.28
CC(C)c1ccc(C(=O)Nc2sc3c(c2C(N)=O)CCC(=O)C3)cc1,2.56,1.14
